In patent US20230174988A1, “METHODS FOR INDUCING BILE ACID SULFOTRANSFERASE SULT2A FOR TREATING METABOLIC DISORDERS” (priority 2020, published 2023):
Entries after “also recorded” stand apart in the source; their conditions may differ. Like-named read-outs stand apart in the source and are kept apart here.

Assays:
[1] = inflammation in vivo
[2] = system: DIO mice; assay: acute treatment of DIO mice via duodenal and rectal catheters: GLP-1 and blood glucose; type: in vivo, mouse; conditions: HFD-fed (DIO) mice, 1 mg CA7S vs PBS, within 15 min
[3] = system: NCI-H716 cells; assay: GLP-1 secretion in NCI-H716 cells in vitro; type: cell-based, human; conditions: for GLP-1 secretion in vitro by CA7S extracted from cecal contents of SG mice: purified CA7S 500 μM vs DMSO
Source text: TGR5 agonism also results in elevated intracellular calcium levels^19.

[4] = system: NCI-H716 cells; assay: intracellular calcium levels in NCI-H716 cells; type: cell-based, human; conditions: NCI-H716 (L-cells)
[5] = in vivo; conditions: mouse, 1 mg
[6] = stability after incubation at 37° C. in buffer at physiological pHs (UPLC-MS); type: physicochemical
[7] = system: macrophage; assay: macrophage cell viability; type: cell-based
[8] = system: Caco-2 cells; assay: cell viability of Caco-2 cells; type: cell-based, human; conditions: concentrations up to 3 mM
[9] = system: NF-kB; assay: NF-kB reporter assay in THP1-Blue cells; type: cell-based, human; conditions: LPS-induced inflammation
[10] = system: macrophages; assay: IL-10 secretion from macrophages in vitro; type: cell-based
[11] = system: SULT2A1; assay: SULT2A1 expression in HepG2 cells (qRT-PCR); type: cell-based; conditions: normalized to human GAPDH
[12] = target: T1, TGR5 (Homo sapiens, UniProt Q8TDU6); assay: relative TGR5 expression (FIG. 40); type: cell-based
T1 sequence (Q8TDU6 1-330): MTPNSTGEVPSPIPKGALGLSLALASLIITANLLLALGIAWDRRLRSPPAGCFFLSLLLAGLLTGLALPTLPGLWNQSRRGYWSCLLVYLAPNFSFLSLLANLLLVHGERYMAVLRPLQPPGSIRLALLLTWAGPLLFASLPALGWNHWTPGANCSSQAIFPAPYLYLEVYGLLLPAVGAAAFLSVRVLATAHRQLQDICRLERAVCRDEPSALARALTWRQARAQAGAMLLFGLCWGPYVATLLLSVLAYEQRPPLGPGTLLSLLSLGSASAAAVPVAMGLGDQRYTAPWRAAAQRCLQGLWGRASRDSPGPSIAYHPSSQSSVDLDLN
Source text: FIG. 40B-D show the relative TGR5 expression of the various compounds.

[13] = system: ASBT; assay: ASBT expression in Caco-2 cells; type: cell-based, human; parameters: dose or concentration left out as unconfirmed; conditions: LCA
[14] = system: GF mice; assay: GF mice administered 0.3% LCA (w/w) in chow for 1 week; type: in vivo, mouse; conditions: 0.3% LCA in chow
[15] = system: DIO mice; assay: portal vein injection of LCA in DIO mice; type: in vivo, mouse; conditions: LCA 50 μM into portal vein
[16] = HFD-fed mice, acute cholic acid 7-sulfate treatment
[17] = listed as cholic acid 7-sulfate
[18] = listed as Cholic acid 7-sulfate

With C[C@H](CCC(=O)O)[C@H]1CC[C@H]2[C@@H]3[C@H](OS(=O)(=O)O)C[C@@H]4C[C@H](O)CC[C@]4(C)[C@H]3C[C@H](O)[C@]12C [CA7S, cholic acid 7-sulfate] the inflammation in vivo [1] was “improves inflammation in vivo”, the “Cholic acid 7-sulfate concentration (mean ± SEM), Cecum” value [16] was 2577 ± 185.3 pmol/mg and the “Cholic acid 7-sulfate concentration (mean ± SEM), Hepatic portal vein” value [16] was 6.128 ± 2.111 pmol/mg. For the same molecule, the “CA7S in cecal contents” value (administration of 1 mg, on average) was 2500 pmol/mg wet mass, the “leak into systemic circulation and portal vein (gut restriction)” value (ectopic introduction in mice, listed as cholic acid 7-sulfate) was “only minor amounts” and the blood glucose levels [2] was “reduced blood glucose levels”. The “systemic GLP-1 levels” value [2] was “increased systemic GLP-1 levels”, the “systemic GLP-1 levels” value [2, 17] was “induced GLP-1 levels” and the “GLP-1 secretion in vitro” value [3] was “induced GLP-1 secretion to a similar degree as TDCA in a dose-dependent manner”. For the same molecule, the “GLP-1 secretion in vitro” value [3, 18] was “induces GLP-1 secretion in vitro better than the known GLP-1 inducer TDCA”, the “GLP-1 secretion in vitro by CA7S extracted from cecal contents of SG mice” value [3] was “induced GLP-1 secretion in vitro” and the “GLP-1 secretion in vitro by CA7S extracted from cecal contents of SG mice” value [3, 17] was “exhibit activity inducing GLP-1 secretion in vitro”. For the same molecule, the intracellular calcium levels [4] was “dose-dependent increase in calcium levels”, the intracellular calcium levels [4, 18] was “increased calcium levels” and the concentration at 15 min ([5]; Cholic acid 7-sulfate concentration (mean ± SEM), Blood, HFD-fed mice, acute cholic acid 7-sulfate treatment) was 0.495 ± 0.167 µM. For the same molecule, the concentration at 15 min ([5]; cholic acid 7-sulfate in the cecum, dosing with 1 mg) was roughly 2500 µM, the “stability at physiological pHs” value [6] was “stable at physiological pHs” and the “stability at physiological pHs” value [6, 18] was “stable in a wide range of pHs”. The macrophage cell viability [7] was “does not affect macrophage cell viability”, the “toxicity / viability of intestinal Caco-2 cells” value [8] was “does not affect the viability” and the “toxicity / viability of intestinal Caco-2 cells” value [8, 18] was “no toxicity”. The NFkB activation [9] was “reduces NFkB activation” and the IL-10 secretion [10] was “induces secretion of the anti-inflammatory cytokine IL-10”.
For C[C@H](CCC(=O)O)[C@H]1CC[C@H]2[C@@H]3[C@H](O)C[C@@H]4C[C@H](O)CC[C@]4(C)[C@H]3C[C@H](O)[C@]12C [CA, cholic acid, reference compound], the “GLP-1 secretion in vitro” value [3] was “had no effect on GLP-1 secretion”, the “GLP-1 secretion in vitro” value ([3]; listed as cholic acid) was “had no effect” and the SULT2A1 expression [11] was “did not induce SULT2A1 expression at all concentrations tested”.
With C[C@H](CCC(=O)O)[C@H]1CC[C@H]2[C@@H]3[C@H](O)C[C@@H]4C[C@H](O)CC[C@]4(C)[C@H]3CC[C@]12C [CDCA, chenodeoxycholic acid] the SULT2A1 expression [11] was “did not induce SULT2A1 expression at all concentrations tested”.
In the case of COC(=O)CC[C@@H](C)[C@H]1CC[C@H]2[C@@H]3[C@H](NS(=O)(=O)O)[C@@H](O[Si](C)(C)C(C)(C)C)[C@@H]4C[C@H](O[Si](C)(C)C(C)(C)C)CC[C@]4(C)[C@H]3CC[C@]12C [Compound 3-8], the TGR5 expression [12] is reported as “induces TGR5 expression”.
In the case of C[C@H](CCC(=O)O)[C@H]1CC[C@H]2[C@@H]3[C@H](OP(=O)(O)O)C[C@@H]4C[C@H](O)CC[C@]4(C)[C@H]3C[C@H](O)[C@]12C [Compound 9, cholic acid-7-phosphate], the TGR5 expression [12] is reported as “induces TGR5 expression”.
For COC(=O)CC[C@@H](C)[C@H]1CC[C@H]2[C@@H]3[C@H](OP(=O)(OCc4ccccc4)OCc4ccccc4)C[C@@H]4C[C@H](O[Si](C)(C)C(C)(C)C)CC[C@]4(C)[C@H]3CC[C@]12C [Compound 9-2], the TGR5 expression [12] was “induces TGR5 expression”.
In the case of C[C@H](CCC(=O)O)[C@H]1CC[C@H]2[C@@H]3CC[C@@H]4C[C@H](O)CC[C@]4(C)[C@H]3CC[C@]12C [LCA, 3α-hydroxy-5β-cholan-24-oic acid], the ASBT expression [13] is reported as “inhibited expression of ASBT”, the “Asbt expression in SI and DI” value [14] is reported as “inhibited expression of Asbt in SI and DI” and the “VDR expression in liver” value [14] is reported as “increased expression”. For the same molecule, the “mSult2A1 expression in liver” value [14] was “increased expression”, the “LCA levels in intestine after feeding” value ([14]; 1 week) was “accumulation of LCA in the proximal small intestine (SI), distal ileum (DI), and cecum” and the “CA7S production and accumulation” value ([14]; gallbladder and distal ileum) was “induced CA7S production and accumulation in the gallbladder (GB) and the DI”. For the same molecule, the “CA7S levels in the gallbladder” value [15] was “increase in CA7S levels in the gallbladder”, the “SULT2A1 expression level in mouse liver” value ([15]; two hours after injection) was “significant increase” and the “VDR expression level in mouse liver” value ([15]; two hours after injection) was “significant increase”. For the same molecule, the SULT2A1 expression [11] was “induced SULT2A1; also recorded: could induce SULT2A1 expression in a dose dependent manner”.
For C[C@H](CCC(=O)NCCS(=O)(=O)O)[C@H]1CC[C@H]2[C@@H]3CC[C@@H]4C[C@H](O)CC[C@]4(C)[C@H]3C[C@H](O)[C@]12C [TCDCA, taurodeoxycholic acid], the SULT2A1 expression [11] was “did not induce SULT2A1 expression at all concentrations tested”.
